Source: US11426441B2, “Composition comprising protein phosphatase 1 inhibitory peptide for treating vascular diseases” (BethphaGen Inc., priority 2016, dated 2022)
No end group written: not given here.

Assays:
[1] = test system: SERCA2a; assay: SERCA2a level and stability in RASMCs (immunostaining, western blotting); format: cell-based, rat; conditions: synthetic conditions, 3 μM peptide
Method: Rat aortic smooth muscle cells (RASMCs) were fixed in 4% (w/v) paraformaldehyde at room temperature for 10 min, washed with PBS, and then transmitted with 0.1% (v/v) Triton X-100 in PBS for 40 min. After washing and blocking with 3% (w/v) BSA in PBS, the cells were incubated overnight at room temperature with antibodies against SERCA2a (1:250), SERCA2b (1:250), and PCNA (1:50). On the following day, the cells were washed with PBS and incubated with anti-rabbit and anti-mouse IgG conjugated to Alexa Fluor 488 and 594, respectively, for 1 hour at room temperature. The cells were treated with FluoroGuard antifade reagent (Bio-Rad, Hercules, Calif., USA), and the coverslips were examined under a fluorescent microscope.
(§1) Vascular smooth muscle cells (VSMCs) were homogenized in a minimal volume of 50 mM Tris-HCl, pH 7.4, supplemented with a broad-spectrum protease inhibitor cocktail (Calbiochem). The proteins were separated by SDS-PAGE and then transferred to polyvinylidene fluoride membranes (Schleicher & Schuell). After blocking with 5% (w/v) non-fat milk for 1 hour and washing with TBST, the membranes were incubated with antibodies against SERCA2a, SERCA2b (21st century biochemical), PCNA (abcam), GAPDH (Sigma-Aldrich), phospho-eNOS, eNOS, phospho-eIF2α, eIF2α (cell signaling), Vimentin, α-SMA, BMPR2 (Santa cruz), phospho-Akt, Akt (cell signaling), phospho-phospholamban (Merck), and Phospholamban (cell signaling). The membranes were then incubated with horseradish peroxidase-conjugated secondary antibodies (Jackson ImmunoResearch, West Grove, Pa., USA) and developed using a chemiluminescent substrate (Dogen). The blots were scanned and quantified using LAS software.
RASMCs were cultured in DMEM supplemented with 0.1% (v/v) FBS (Contractile) or in DMEM supplemented with 10% (v/v) FBS (Synthetic) in the presence of 3 μM control or ψPLB-SE peptide. Cycloheximide (Sigma) was added to media to a final concentration of 5 μg/ml. Cells were harvested after 0, 3, and 5 days of incubation and their protein extracts were subjected to western blotting.

[2] = test system: PLB; assay: PLB phosphorylation in RASMCs (western blotting); format: cell-based, rat
Method: FIG. 7. ψPLB-SE attenuates PLB dephosphorylation in VSMCs. The proteins samples shown in FIG. 2C were subjected to western blotting. Antibodies against PLB or phospho-PLB were used. Data are expressed as the means±SD (n=3-4; *, P<0.05).
as §1

[3] = test system: SERCA2a; conditions: in vitro and ex vivo; Oh J G et al. (2013); cited from earlier work
[4] = test system: monocrotaline (MCT)-induced pulmonary arterial hypertension rats; assay: Monocrotaline-induced pulmonary arterial hypertension in rats; format: in vivo, rat
Method: as §1
Eleven Sprague-Dawley rats (Damool science, Korea) weighing 250-300 g were administered with 60 mg/kg monocrotaline (MCT) (Sigma Aldrich) via intraperitoneal injection, and three animals of a control group were administered with 0.9% physiological saline. According to the dosing schedule, simultaneously with the administration of MCT, six animals for the […] were administered with ψPLB-SE peptide diluted in 300 μl via respiratory inhalation four times at intervals of one week. Five animals for the control group were administered with control peptide. The rats were sacrificed one week after the administration with last peptide, and then histological analysis and molecular biological experiments were conducted.
In order to indirectly measure the pulmonary artery pressure, right heart catheterization was conducted on the basis of a procedure reported in Nature Protocols in 2008. Rats were anesthetized, followed by tracheal intubation. The rats were placed on a homeothermic plate (AD Instruments, Spechbach, Germany) for the maintenance of body temperature during heart catheterization, and then kept breathing using an artificial respiratory device only for an animal (MiniVent type 845, Hugo Sachs Elektronik, March-Hugstetten, Germany). The chest of the rats was opened, and then high-fidelity 1.4 F micromanometer/Mikro-Tip Pressure catheter (Millar Instruments, Houston, Tex.) was allowed to infiltrate the tricuspid site, to measure the right ventricular end-systolic pressure, right ventricular end-diastolic pressure, left ventricular end-systolic pressure, and left ventricular end-diastolic pressure (RVESP, RVEDP, LVESP, LVEDP). Related values and data were collected and analyzed using the PowerLab data acquisition system (MPVS-Ultra Single Segment Foundation System, AD Instruments) and LabChart 7 for Windows software.
Pulmonary tissues were taken from animal models, fixed with 4% (w/v) paraformaldehyde for 5 days at room temperature, and then washed with PBS. After embedding the specimens in paraffin and sectioning the tissue blocks into a thickness of 7 μm, the sections were stained with haematoxylin and eosin (Sigma Aldrich) to investigate the vascular thickness and inflammation, and the sections were stained with Masson-trichrome (Sigma Aldrich) to investigate the extent of perivascular fibrosis, and then observed through an optical microscope.
The pulmonary tissues were obtained from rats and mice, and the cytokine levels in the tissues were quantitatively analyzed using human proinflammatory 10plex Meso Scale Diagnostics plates (MSD; Rockville, Md.).

## RAETIEMPQ (not fully specified) [ψPLB-SE, 9-mer PP1 decoy peptide mimicking phosphorylated PLB; conjugated via GGG linker to cell penetrating peptide dNP2 or TAT]
[1]
  SERCA2a reduction (immunostaining): completely inhibited
  reduction of SERCA2a (western blotting): inhibited
[1]; cycloheximide 5 μg/ml
  stability of SERCA2a: restored nearly to the level observed under contractile conditions
[2]
  dephosphorylation of PLB: inhibited
[3]
  SERCA2a activity in the heart after ischemia/reperfusion: restored
[4]; MCT 60 mg/kg rats, peptide via respiratory inhalation once a week for 4 weeks, MCT 67.4±6.4, sham 33.7±1.7
  right ventricular end-systolic pressure: 33.5±5.8
[4]; rat pulmonary tissue
  expression degree of BMPR2: restored
  fibrosis extent of vascular adventitia (Masson-trichrome staining): reduced
  increase in vascular thickening (hematoxylin and eosin staining): attenuated
  phosphorylation level of eIF2α: restored
  proinflammatory cytokines (GM-CSF, TNF-α, IL-17, IL-1β, IL-6, TGF-β) levels: restored to nearly to the normal levels
[4]; rat pulmonary tissue proteins
  eNOS phosphorylation level (eNOS activity): increased
[4]; rat pulmonary tissue, protein quantitative analysis
  increases in the expression of vimentin and α-SMA: attenuated
